Measurements from paper PMC3914206.

How the values were obtained:
Type in all cases: binding
Details in all cases: Compound Concentration 10 µM
panel of 442 kinases [1] = molecular target: T1, panel of 442 kinases (Homo sapiens, UniProt O94921)
T1 construct: purchased KINOMEscan
Excerpt: (§1) We assessed the selectivity of members of this scaffold using the KINOMEscan methodology across a near comprehensive panel of 442 kinases [[18,27]].

panel of 442 kinases [2] = molecular target: T2, panel of 442 kinases (Homo sapiens, UniProt P14616)
T2 construct: purchased KINOMEscan
T2 sequence (P14616 27-1297): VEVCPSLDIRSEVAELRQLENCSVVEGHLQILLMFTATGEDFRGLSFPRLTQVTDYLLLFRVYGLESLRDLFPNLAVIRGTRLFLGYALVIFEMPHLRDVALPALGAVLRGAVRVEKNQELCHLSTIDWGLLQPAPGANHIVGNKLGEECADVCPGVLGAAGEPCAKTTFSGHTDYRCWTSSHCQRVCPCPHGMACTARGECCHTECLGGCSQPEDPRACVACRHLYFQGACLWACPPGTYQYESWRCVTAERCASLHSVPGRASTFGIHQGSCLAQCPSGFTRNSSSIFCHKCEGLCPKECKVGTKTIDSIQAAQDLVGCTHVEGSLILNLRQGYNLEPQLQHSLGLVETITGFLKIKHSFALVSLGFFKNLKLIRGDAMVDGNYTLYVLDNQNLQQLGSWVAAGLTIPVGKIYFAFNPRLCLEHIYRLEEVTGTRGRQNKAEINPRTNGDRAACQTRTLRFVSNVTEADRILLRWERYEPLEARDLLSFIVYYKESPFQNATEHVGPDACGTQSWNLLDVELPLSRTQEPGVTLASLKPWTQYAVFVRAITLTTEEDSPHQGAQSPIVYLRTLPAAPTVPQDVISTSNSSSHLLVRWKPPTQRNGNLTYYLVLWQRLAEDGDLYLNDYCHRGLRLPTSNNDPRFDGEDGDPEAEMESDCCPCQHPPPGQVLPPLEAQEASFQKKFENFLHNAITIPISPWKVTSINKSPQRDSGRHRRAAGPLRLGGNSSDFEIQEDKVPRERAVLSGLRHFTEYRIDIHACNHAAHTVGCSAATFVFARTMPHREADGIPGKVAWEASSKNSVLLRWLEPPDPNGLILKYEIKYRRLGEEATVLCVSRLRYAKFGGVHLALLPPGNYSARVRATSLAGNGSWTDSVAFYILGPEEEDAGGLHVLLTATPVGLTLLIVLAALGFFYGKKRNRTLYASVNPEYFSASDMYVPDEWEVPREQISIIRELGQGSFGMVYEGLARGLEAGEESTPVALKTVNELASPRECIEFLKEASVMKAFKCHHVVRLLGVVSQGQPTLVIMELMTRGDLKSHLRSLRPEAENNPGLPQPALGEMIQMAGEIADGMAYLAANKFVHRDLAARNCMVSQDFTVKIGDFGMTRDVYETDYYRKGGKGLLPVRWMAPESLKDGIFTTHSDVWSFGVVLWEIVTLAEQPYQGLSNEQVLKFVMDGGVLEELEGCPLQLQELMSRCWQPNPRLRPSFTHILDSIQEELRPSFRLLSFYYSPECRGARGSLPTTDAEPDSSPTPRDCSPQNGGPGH
Excerpt: as §1

panel of 442 kinases [3] = molecular target: T3, panel of 442 kinases (Homo sapiens, UniProt P53667)
T3 construct: purchased KINOMEscan
T3 sequence (P53667 whole entry): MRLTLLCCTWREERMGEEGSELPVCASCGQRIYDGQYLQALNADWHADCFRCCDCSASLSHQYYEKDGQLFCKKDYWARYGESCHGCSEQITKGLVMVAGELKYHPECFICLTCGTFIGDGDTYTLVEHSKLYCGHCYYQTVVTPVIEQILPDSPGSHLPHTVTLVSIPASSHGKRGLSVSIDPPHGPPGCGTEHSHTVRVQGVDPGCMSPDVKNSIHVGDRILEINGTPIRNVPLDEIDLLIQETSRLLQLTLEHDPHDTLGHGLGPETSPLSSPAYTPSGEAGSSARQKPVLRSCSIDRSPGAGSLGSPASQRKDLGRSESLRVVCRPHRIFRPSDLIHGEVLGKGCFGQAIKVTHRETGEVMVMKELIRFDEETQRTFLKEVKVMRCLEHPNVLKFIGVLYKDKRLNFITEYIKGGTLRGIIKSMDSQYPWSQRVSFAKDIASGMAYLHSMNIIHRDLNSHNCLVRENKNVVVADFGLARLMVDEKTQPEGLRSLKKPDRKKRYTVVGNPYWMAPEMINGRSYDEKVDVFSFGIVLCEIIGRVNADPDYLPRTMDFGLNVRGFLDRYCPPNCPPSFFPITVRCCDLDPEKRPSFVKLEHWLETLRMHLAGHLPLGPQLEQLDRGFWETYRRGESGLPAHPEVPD
Excerpt: as §1

T1 sequence (O94921 whole entry): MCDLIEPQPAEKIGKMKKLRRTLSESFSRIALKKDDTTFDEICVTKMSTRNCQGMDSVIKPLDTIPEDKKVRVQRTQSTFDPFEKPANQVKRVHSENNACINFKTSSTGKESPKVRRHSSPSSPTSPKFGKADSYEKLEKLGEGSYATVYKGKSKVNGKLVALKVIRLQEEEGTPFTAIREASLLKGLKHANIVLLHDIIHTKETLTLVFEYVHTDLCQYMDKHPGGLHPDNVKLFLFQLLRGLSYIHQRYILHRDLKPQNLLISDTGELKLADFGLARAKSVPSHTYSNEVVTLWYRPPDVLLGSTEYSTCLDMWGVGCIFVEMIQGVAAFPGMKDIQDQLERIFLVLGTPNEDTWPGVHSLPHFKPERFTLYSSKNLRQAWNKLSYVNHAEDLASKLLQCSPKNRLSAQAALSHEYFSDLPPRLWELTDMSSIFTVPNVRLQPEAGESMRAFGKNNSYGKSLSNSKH

| Structure (SMILES) | KINOMEscan: PFTK1 (panel of 442 kinases [1]) | KINOMEscan: INSRR (panel of 442 kinases [2]) | KINOMEscan: LIMK1 (panel of 442 kinases [3]) |
| --- | --- | --- | --- |
| COc1cc(C(=O)N2CCC(N3CCN(C)CC3)CC2)ccc1Nc1ncc2c(n1)N(C)c1ccccc1C(=O)N2C [15 (LRRK2-IN-1)] | 81 | 97 | 95 |
| COc1cc(C(=O)N2CCC(N3CCN(C)CC3)CC2)ccc1Nc1ncc2c(n1)N(C1CCCC1)c1ccccc1C(=O)N2C [Compound 25, 11-cyclopentyl-2-((2-methoxy-4-(4-(4-methylpiperazin-1-yl)piperidine-1-carbonyl)phenyl)amino)-5-methyl-5H-benzo[e]pyrimido[5,4-b][1,4]diazepin-6(11H)-one] | 100 | 94 | 93 |
| CCOc1cc(C(=O)N2CCC(N3CCN(C)CC3)CC2)ccc1Nc1ncc2c(n1)N(C1CCCC1)c1ccccc1C(=O)N2C [Compound 26] | 100 | 100 | 100 |
